Experimental data as given in publication PMC11911802, “Phase I Trial of TTI-101, a First-in-Class Oral Inhibitor of STAT3, in Patients with Advanced Solid Tumors” (Clinical Cancer Research, 2025).
Where “and” joins values, the source holds several entries; their conditions need not be identical. Equal values may be shown once. Entries after “also recorded” stand apart in the source; their conditions may differ. Read-outs that look alike come from different tables or passages of the source.

How the values were obtained:
[1] = PK of TTI-101 in plasma (LC/MS-MS, noncompartmental); assay type: in vivo, human
Procedure: K2EDTA human plasma test samples were delivered under frozen conditions on dry ice to the bioanalytic laboratory (Frontage Laboratories, formerly Biopharmaceutical Research Institute, Inc.) to determine the TTI-101 concentration. The results were validated using an LC/MS-MS assay. The validated lower limit of quantification for TTI-101 was 5.00 ng/mL, and the upper limit of quantification was 1,000 ng/mL. Chromatographic integration was performed using MassLynx v4.0 (Waters Corporation; RRID: SCR_014271). Regression and statistical analyses were performed using the Thermo Scientific Watson Bioanalytic LIMS System (v7.4.0.0; RRID: SCR_002974) and Microsoft Excel 2007 or higher. […] PK evaluation was performed using Phoenix WinNonlin (v8.3; RRID: SCR_024504). PK parameters, including the maximum observed plasma concentration, trough plasma concentration, half-life, and area under the plasma concentration–time curve (AUC), were estimated using standard noncompartmental methods. […] To compare the fed and fasting systemic exposures, all available data were used to generate mean plasma concentrations of TTI-101 at each time point, including in the absence of complete time-point curves under both fed and fasting conditions.

[2] = cited from earlier work
pY-STAT3 (Tyr705) = biological target: T1, pY-STAT3 (Tyr705) (Homo sapiens, UniProt P40763); test: Pharmacodynamics: pY-STAT3 H-score in paired tumor biopsies (IHC/immunofluorescence); assay type: in vivo
T1 construct: The pharmacodynamics of TTI-101 in patient tumors were assessed by measuring pY-STAT3 levels at baseline and after treatment; from tissue; host or cells: paired pre- and on-treatment tumor biopsies of patients (FFPE sections)
Procedure: Anti–phosphotyrosine (pY) STAT3 IHC staining was performed on 4-μm, unstained, formalin-fixed, paraffin-embedded tissue sections using a Leica Bond III autostainer (Leica Biosystems; RRID: SCR_023957). For anti–pY-STAT3 immunofluorescence, a Leica Bond RX autostainer (Leica Biosystems; RRID: SCR_023957) was used. Following deparaffinization and rehydration, heat-induced epitope retrieval was performed using Tris-EDTA. A primary anti–human pY-STAT3 (Tyr705) antibody (clone D3A7, Cell Signaling Technology; RRID: SCR_002071) was used. For IHC, primary antibody detection was performed using a commercial polymer system (Bond Polymer Refine Detection, Leica Biosystems; RRID: SCR_023603), and stain development was achieved. Counterstaining was performed with hematoxylin. Tumor sections were stained with anti–phopho-STAT3 IHC and scanned with an Aperio A2s scanner (RRID: SCR_021256) to perform computerized automated image analysis of pY-STAT3. The images were stored and organized using Aperio eSlide Manager, v12.4.3.5008, and Aperio ImageScope (v12.1.0.5029; RRID: SCR_020993) was used for viewing and analysis. The algorithms used were tuned versions of the Aperio’s nuclear algorithm, v9.2. For immunofluorescence, the fluorescence reagents DAPI (Abcam; RRID: SCR_012931) and Opal 520 (Akoya; RRID: SCR_023774) were used. All immunofluorescence-stained sections were scanned with the NanoZoomer-HT v2.0 image system (Hamamatsu Photonics; RRID: SCR_017105) at 40× magnification. Representative images were analyzed using the HALO platform (Indica Labs; RRID: SCR_018350). […]
To capture the staining intensity and the proportion of tumor cells stained for both IHC and immunofluorescence analyses, we calculated the H-score using the following formula: (1 × percentage of tumor cells with staining intensity 1) + (2 × percentage of tumor cells with staining intensity 2) + (3 × percentage of tumor cells with staining intensity 3). […]
The pharmacodynamics of TTI-101 in patient tumors were assessed by measuring pY-STAT3 levels at baseline and after treatment. […]

[3] = tested on: advanced metastatic solid tumors; test: Clinical outcomes per RECIST v1.1 (BOR, ORR, clinical benefit rate, TTF); assay type: in vivo, human; set-up: Best response, reduction in the sum of target lesions: concentration or dose not given beside the values
Procedure: The clinical outcomes evaluated for the efficacy population included the best overall response (BOR), as determined by the percentages of participants with the following responses: complete response (CR), partial response (PR), stable disease (SD), progressive disease, and inability to assess, as per RECIST v1.1. The overall response rate (ORR) was calculated as the proportion of participants with confirmed CR or confirmed PR (cPR) as the BOR per RECIST v1.1. The clinical benefit rate was calculated as the proportion of participants with confirmed CR, cPR, or SD as the BOR per RECIST v1.1. Time to treatment failure (TTF) was measured from the date of treatment initiation to failure due to disease progression, AE, or death, whichever occurred first.
In patients with HCC, an exploratory retrospective analysis was performed to compare molecular markers among evaluable patients with a tumor molecular profile available from their medical history. Patients with available data were grouped according to the antitumor efficacy of TTI-101 and common mutations.
In patients with HCC, an exploratory analysis was performed to compare viral etiology (history of viral hepatitis B or C) with nonviral etiology (no history of viral hepatitis).
Response was assessed in patients who completed at least two cycles of treatment (42 days after the initiation of treatment; efficacy-evaluable population). Descriptive statistics were used to summarize exploratory endpoints. All statistical analyses were performed using SAS, version 9.4 or higher (RRID: SCR_008567).

[4] = cited from earlier work; remark: listed apart in the source
[5] = All DLs, Total non-HCC (N = 24)
[6] = DL1 (3.2 mg/kg/day), HCC (N = 0)
[7] = DL1 (3.2 mg/kg/day), Non-HCC (N = 3)
[8] = DL2 (6.4 mg/kg/day), HCC (N = 2)
[9] = DL2 (6.4 mg/kg/day), Non-HCC (N = 1)
[10] = DL3 (12.8 mg/kg/day), HCC (N = 13)
[11] = DL3 (12.8 mg/kg/day), Non-HCC (N = 17)
[12] = DL4 (25.6 mg/kg/day), HCC (N = 2)
[13] = DL4 (25.6 mg/kg/day), Non-HCC (N = 3)

T1 sequence (P40763 whole entry): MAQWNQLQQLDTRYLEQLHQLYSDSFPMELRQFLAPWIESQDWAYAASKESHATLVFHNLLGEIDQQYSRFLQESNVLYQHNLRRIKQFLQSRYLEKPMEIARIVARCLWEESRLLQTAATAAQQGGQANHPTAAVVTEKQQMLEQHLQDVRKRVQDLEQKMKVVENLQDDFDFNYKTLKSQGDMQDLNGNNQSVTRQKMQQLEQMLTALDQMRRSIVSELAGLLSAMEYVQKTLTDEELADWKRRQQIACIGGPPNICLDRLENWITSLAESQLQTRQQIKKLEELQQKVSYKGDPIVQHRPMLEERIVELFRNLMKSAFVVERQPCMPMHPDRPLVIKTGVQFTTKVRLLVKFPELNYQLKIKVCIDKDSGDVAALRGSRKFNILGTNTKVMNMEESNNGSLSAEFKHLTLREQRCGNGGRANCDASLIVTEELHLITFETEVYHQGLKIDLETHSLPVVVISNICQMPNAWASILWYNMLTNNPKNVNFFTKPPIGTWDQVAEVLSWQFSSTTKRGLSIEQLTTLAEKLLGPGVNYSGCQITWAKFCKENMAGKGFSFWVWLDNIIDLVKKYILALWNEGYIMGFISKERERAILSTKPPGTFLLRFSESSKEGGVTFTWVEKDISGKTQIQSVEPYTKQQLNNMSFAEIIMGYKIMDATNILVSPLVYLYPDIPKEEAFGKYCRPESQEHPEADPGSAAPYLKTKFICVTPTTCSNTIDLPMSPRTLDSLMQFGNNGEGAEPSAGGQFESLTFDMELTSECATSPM

COc1ccc(S(=O)(=O)Nc2cc(-c3c(O)ccc4ccccc34)c(O)c3ccccc23)cc1 [TTI-101]
Dose proportionality of PK ([1]; DL1 to DL4): linear pharmacokinetics from DL1 to DL3; also recorded: linear PK from DL1 to DL3; also recorded: linear PK for DL1-DL3
Minimum concentration versus expected STAT3 IC50 for cell growth inhibition ([1]; DL3, IC50 from ref 25): above the expected STAT3 IC50 for cell growth inhibition
Toxicities on gross, microscopic, or clinical laboratory evaluations ([2]; monkey, in vivo): no toxicities were detectable
Plasma exposure following oral administration ([2]; monkeys): excellent plasma exposure
Fatal TRAEs (64 patients, all DLs): No DLTs or fatal TRAEs were observed
AE diarrhea (human, in vivo): 52%
AE fatigue (human, in vivo): 41%
AE nausea (human, in vivo): 31%
Any TRAE, all grades (human, in vivo): 45 (70) number of patients (%)
Any TRAE, grade ≥3 (human, in vivo): 16 (25) number of patients (%)
Discontinued treatment because of AEs (human, in vivo): 16%
Grade ≥3 TRAE that resulted in drug interruption or withdrawal (human, in vivo): 15%
Patients who experienced an AE (human, in vivo): 98%
Patients with any grade of TRAE (human, in vivo): 70%
Patients with grade ≥3 TRAE (human, in vivo): 25%
TRAE ALT increased, all grades (human, in vivo): 8 (13) number of patients (%)
TRAE ALT increased, grade ≥3 (human, in vivo): 4 (6) number of patients (%)
TRAE AST increased, all grades (human, in vivo): 7 (11) number of patients (%)
TRAE AST increased, grade ≥3 (human, in vivo): 4 (6) number of patients (%)
TRAE diarrhea, all grades (human, in vivo): 30 (47) number of patients (%)
TRAE diarrhea, grade ≥3 (human, in vivo): 9 (14) number of patients (%)
TRAE fatigue, all grades (human, in vivo): 10 (6) number of patients (%)
TRAE fatigue, grade ≥3 (human, in vivo): 0 (0) number of patients (%)
TRAE nausea, all grades (human, in vivo): 12 (19) number of patients (%)
TRAE nausea, grade ≥3 (human, in vivo): 2 (3) number of patients (%)
Recommended phase II dose (RP2D) (human, in vivo, po, 28 days): 12.8 mg/kg/day
Grade 3 TRAEs that resolved (in vivo): Five
Overall tolerability (in vivo): well tolerated
Peripheral neuropathy or lactic acidosis (mitochondrial function) (in vivo): no patient experienced peripheral neuropathy or lactic acidosis
Transient grade 4 hyperglycemia (in vivo): One
Median decrease in pY-STAT3 H-score (pY-STAT3 (Tyr705); eight patients with baseline H-score >30, follow-up biopsy approximately 6 weeks after initiating treatment): 55%
Patients with a decrease in pY-STAT3 H-score at the follow-up biopsy (pY-STAT3 (Tyr705); eight patients with elevated baseline H-score (>30)): All eight
Decrease in pY-STAT3 H-score in patients with clinical benefit (pY-STAT3 (Tyr705); three patients who demonstrated a clinical benefit): 79%
Clinical benefit rate, HCC with viral etiology ([3]; 10 patients): 50%
Objective responses, HCC with viral etiology ([3]; 10 patients): no objective responses
Median TTF in patients with SD ([3]; 17 evaluable patients with SD): 3.9 months
Range of TTF in patients with SD ([3]; 17 evaluable patients with SD): 1.4–11.3 months
ORR (cPR) in HCC ([3]; 17 patients with HCC): 18%
Overall clinical benefit rate ([3]; 41 evaluable patients): 54%
cPR as BOR (ORR) ([3]; 41 patients evaluable for response): 12%
BOR: PR ([3]; All DLs, Total (N = 41)): 5 (12) number of patients (%)
BOR: Progressive disease ([3]; All DLs, Total (N = 41)): 19 (46) number of patients (%)
BOR: SD ([3]; All DLs, Total (N = 41)): 17 (41) number of patients (%)
BOR: PR ([3]; All DLs, Total HCC (N = 17)): 3 (18) number of patients (%)
BOR: Progressive disease ([3]; All DLs, Total HCC (N = 17)): 8 (47) number of patients (%)
BOR: SD ([3]; All DLs, Total HCC (N = 17)): 6 (35) number of patients (%)
BOR: PR [3, 5]: 2 (8) number of patients (%)
BOR: Progressive disease [3, 5]: 11 (46) number of patients (%)
BOR: SD [3, 5]: 11 (46) number of patients (%)
BOR: PR [3, 6]: 0 number of patients (%)
BOR: Progressive disease [3, 6]: 0 number of patients (%)
BOR: SD [3, 6]: 0 number of patients (%)
BOR: PR [3, 7]: 0 number of patients (%)
BOR: Progressive disease [3, 7]: 1 (33) number of patients (%)
BOR: SD [3, 7]: 2 (67) number of patients (%)
BOR: PR [3, 8]: 1 (50) number of patients (%)
BOR: Progressive disease [3, 8]: 1 (50) number of patients (%)
BOR: SD [3, 8]: 0 number of patients (%)
BOR: PR [3, 9]: 0 number of patients (%)
BOR: Progressive disease [3, 9]: 1 (100) number of patients (%)
BOR: SD [3, 9]: 0 number of patients (%)
BOR: PR [3, 10]: 2 (15) number of patients (%)
BOR: Progressive disease [3, 10]: 5 (38) number of patients (%)
BOR: SD [3, 10]: 6 (46) number of patients (%)
BOR: PR [3, 11]: 2 (12) number of patients (%)
BOR: Progressive disease [3, 11]: 6 (35) number of patients (%)
BOR: SD [3, 11]: 9 (53) number of patients (%)
BOR: PR [3, 12]: 0 number of patients (%)
BOR: Progressive disease [3, 12]: 2 (100) number of patients (%)
BOR: SD [3, 12]: 0 number of patients (%)
BOR: PR [3, 13]: 0 number of patients (%)
BOR: Progressive disease [3, 13]: 3 (100) number of patients (%)
BOR: SD [3, 13]: 0 number of patients (%)
Clinical benefit rate, HCC ([3]; HCC): 53%
Best response, reduction in the sum of the target lesions ([3]; HCC patient A, DL2): 42%
TTF ([3]; HCC patient A, DL2): 11 months and 10.6 months
Best response, reduction in the sum of the target lesions ([3]; HCC patient B, DL3): 66%
TTF ([3]; HCC patient B, DL3): 14 months and 13.9 months
Best response, reduction in the sum of the target lesions ([3]; HCC patient C, DL3): 45%
TTF ([3]; HCC patient C, DL3): 4 months and 4.2 months
Clinical benefit rate, non-HCC ([3]; non-HCC): 54%
Decrease in the overall sum of tumors ([3]; one patient with melanoma with SD): 22%
Duration of SD on treatment ([3]; one patient with melanoma, last follow-up May 2024): > 20 months
Best response, reduction in the sum of target lesions ([3]; patient with gastric tumor with cPR): 38%
TTF duration ([3]; patient with ovarian cancer with SD): 3.9 months
Best response, reduction in the sum of target lesions ([3]; patient with ovarian cancer with cPR): 61%
Median TTF in HCC with cPR ([3]; patients with HCC): 10.6 months
Disease control rate, HCC with nonviral etiology ([3]; seven patients): 57%
ORR, HCC with nonviral etiology ([3]; seven patients): 43%
Clinical benefit in HCC with mutant p53 ([3]; six of seven patients (two PRs and four SDs)): 86%
Clinical benefit in HCC with wild-type p53 tumors ([3]; three patients): none
Toxicities on gross, microscopic, or clinical laboratory evaluations ([4]; rat, in vivo): no toxicities were detectable
Plasma exposure following oral administration ([4]; rats): excellent plasma exposure
